Results as given in patent US20220002816A1, “IDENTIFICATION OF JUND TARGET GENES FOR INHIBITION OF PROSTATE CANCER CELL GROWTH” (Center for Cancer Research & Therapeutic Development, Clark …, priority 2018, published 2022).

Legend:
Type in all cases: cell-based, Human
DU145 vector cells = test: Cell proliferation assay (cell counting) after JQ1 treatment; conditions: 5 μM JQ1, 72 hrs, vs DMSO control, p<0.001
Method: (§1) Human prostate cancer cell lines (PC3 and DU145) were purchased from ATCC (Manassas, Va.). Cells were cultured in the recommended growth media [MEM media supplemented with 5% fetal bovine serum (FBS)] in 100% humidity at 37° C. with 5% CO2 as described previously. DU145 cells overexpressing JunD (D1), generated from a previous study were cultured as above, with an addition of […] G418 [29].
(§2) DU145 vector and DU145 JunD overexpressed (D1) cells plated at a density of 2×10^4 cells/ml in 24 well plates (for cell proliferation assays) or at a density of 1.5×10^5 cell/ml in 6 well plates (for cell lysates) were treated in the presence or absence of 5 μM JQ1 for 72 hrs. Control cells were treated with DMSO. Cells were then counted using a hemacytometer and cell lysates were collected for western blot analyses.

[1] = tested on: DU145 JunD overexpressed (D1) cells; test: as above; conditions: 5 μM JQ1, 72 hrs, DU145 D1 (JunD overexpressing) cells, vs DMSO control, p<0.001
Method: as §1, §2

[2] = tested on: JunD target genes protein levels in DU145 vector cells; test: Western blot of JunD target gene protein levels after JQ1 treatment; conditions: 5 μM JQ1, 72 hrs
Method: as §2
(§3) Following siRNA transient transfections, PC3 and DU145 cell lysates from several independent experiments were collected as previously described. In brief, equal amounts of protein (50 μg) were separated by electrophoresis using 10% SDS-polyacrylamide gels and then transferred to PVDF membranes (Millipore, Billerica, Mass.). After being blocked with 5% milk, the membranes were incubated with specific primary antibodies (1:800 dilution for JunD; 1:500 dilution for anti-PRDX3, anti-CDK2, anti-CDK4, anti-KIF2C, anti-EIF1, anti-PEA15, anti-CCNA1, anti-ADRA2B, anti-TCF4, anti-ANAX2, anti-ELMO2, and anti-ERO1-La; 1:200 dilution for anti-PLCD4, anti-c-MYC, and anti-PTMA; 1:3000 dilution for anti-α-Tubulin) overnight at 4° C. and then incubated with appropriate horseradish peroxidase-conjugated secondary antibody for 1 h. […] The relative intensities of specific protein were determined by ImageJ software (NIH version: 1.8.0_112).

[3] = tested on: JunD target genes protein levels in DU145 JunD overexpressed (D1) cells; test: as above; conditions: 5 μM JQ1, 72 hrs
Method: as §2, §3

Cc1sc2c(c1C)C(c1ccc(Cl)cc1)=N[C@@H](CC(=O)OC(C)(C)C)c1nnc(C)n1-2 [JQ1]
cell proliferation (DU145 vector cells): significantly reduced
cell proliferation [1]: significantly reduced
JunD target genes protein levels [2]: decreased
JunD target genes protein levels [3]: decreased
